≈ marks a conversion by molar mass, not a printed value.
Tests used:
[1] = tested on: all tested bacterial strains, including non-staphylococci strains; test: Broth microdilution MIC, summary over all strains tested; conditions: read-out: MIC of DTT
[2] = tested on: Escherichia coli ΔlptD4213; test: microbe, parasite or virus in culture; assay type: cell-based; conditions: read-out: Broth Microdilution MIC
Excerpt: Reference strains for this study (S. aureus ATCC 29213, ATCC 29740 [bovine mastitis strain Newbould], S. epidermidis ATCC 12228, E. coli ATCC 35695, E. faecalis ATCC 29212) were obtained from the American Type Culture Collection (ATCC, Rockville, MD). S. aureus strains CMRSA-10 and CMRSA-2 were obtained from the Laboratoire de santé publique du Québec (LSPQ, Sainte-Anne-de-Bellevue, QC, Canada) and are Canadian CA-MRSA USA-300 and HA-MRSA USA-100 clones, respectively. The strain E. coli imp4213 (lptD), used as a control in MIC assays, is a derivative of E. coli ATCC 35695 (E. coli MC4100) with an increased membrane permeability. […] Other MRSA strains used in this study are clinical isolates of human origin obtained from the microbiology laboratory of the Centre Hospitalier Universitaire de Sherbrooke (CHUS, Sherbrooke, QC, Canada). Bovine mastitis strains (S. aureus, S. chromogenes, S. haemolyticus, S. hominis, S. simulans) were obtained from the Canadian Bovine Mastitis and Milk Quality Research Network (CBRQMN, St-Hyacinthe, QC, Canada). Among these strains, S. aureus 2117 is a high producer of biofilm and was used in the biofilm-eradication assay. S. epidermidis isolates were provided by Centre de Recherche en Infectiologie (CRI) de Québec (Québec, QC, Canada).

[3] = tested on: Escherichia coli ATCC 35695; test: Broth microdilution MIC; conditions: ATCC35695, read-out: Broth Microdilution MIC
[4] = tested on: S. aureus bovine strain 2117 embedded in preformed biofilm; test: Biofilm-eradication test (MBEC assay); assay type: cell-based, Staphylococcus aureus; conditions: 24 h preformed biofilm
Method: The viability of bacteria in preformed biofilms treated with PC206 was evaluated using the MBEC assay™ system (formerly the Calgary Biofilm Device). The device consists of a plastic lid with 96 pegs and a 96-well plate. […] Plates were incubated at 35 °C for 24 h with agitation (120 rpm). […] The pegs were washed three times with PBS and the biofilm was sonicated for 10 min, and then transferred into a new 96-well base plate. The 96-well plate was centrifuged for 5 min at 180 g to recover the detached bacteria.

[5] = tested on: guanine riboswitch-lacZ fusion construct (xpt-lacZ); test: Riboswitch regulation assay (lacZ-gene reporter); assay type: cell-based, B. subtilis; conditions: concentration as low as 1 µg/mL
Excerpt: The novel pyrimidine compounds, especially PC206, display specificity and potency against some staphylococci but not the other bacterial genus (Table 1 and Table 2). Because they are structurally derived from PC1 and PC2, these novel antibiotic candidates are expected to have the same mode of action. […] To verify this hypothesis, a strain of B. subtilis with a guanine riboswitch-lacZ fusion construct (named xpt-lacZ) integrated in its chromosome was exposed to these new antimicrobials. […] Therefore, it is an adequate reporter species. The metabolization of substrate ONPG into colored ONP was normalized by the bacterial suspension absorbance at 600 nm (Miller units) and relativized to the untreated condition.
β-galactosidase gene expression in the presence of the new pyrimidine analogs was studied, using an xpt-lacZ transcriptional fusion construct integrated in the genome of B. subtilis as previously described. Briefly, cultures were grown for 5 h at 35 °C in CAMHB, from an initial optical density of 0.05 at 600 nm (OD600), and then diluted 1:20 and in the presence of different concentrations of the compounds tested. Cultures were centrifuged for 10 min at 13,100 rpm, the supernatant was discarded, and pellets were suspended in a Z-buffer (NaH2PO4 40 mM, Na2HPO4 60 mM, MgSO4 1 mM, KCl 10 mM). Cultures OD600 were measured, and bacteria were then lysed with lysozyme (1 mg/mL) and β-mercaptoethanol 50 mM for 30 min. Lysates were centrifuged for 10 min at 13,100 rpm, and supernatants were incubated for 5 min at 30 °C with the substrate orthonitrophenyl-β-galactoside (ONPG; Sigma Aldrich). Reactions were stopped with Na2CO3 1M, supernatants OD420 were measured, and Miller units were calculated. A decrease in β-galactosidase activity indicated binding of the test compound to the riboswitch. Guanine and oxacillin were used as […] controls, respectively. The formula to measure Miller units is as follows: Millerunits=1000×OD420/t·v·OD600
Here, t represents the time of incubation with ONPG, and v represents the volume of the reaction.

O[C@@H](CS)[C@@H](O)CS (racemic) [DTT, dithiothreitol, reference compound]
MIC [1]: > 75 mM

CC(C)(O/N=C(\C(=O)N[C@@H]1C(=O)N2C(C(=O)[O-])=C(C[n+]3ccccc3)CS[C@H]12)c1csc(N)n1)C(=O)O [CAZ, ceftazidime, reference compound]
MIC [2]: 0.03 µg/mL (≈ 0.0549 µM)
MIC [3]: 0.25 µg/mL (≈ 0.457 µM)

CNC(C)C1CCC(N)C(OC2C(N)CC(N)C(OC3OCC(C)(O)C(NC)C3O)C2O)O1 (centres unmarked) [Gentamicin, reference compound]
Lowest concentration that significantly reduced CFU/peg [4]: 2 µg/mL

Nc1nc2nc[nH]c2c(=O)[nH]1 [Guanine, reference compound]
Effect on lacZ expression [5]: strongly inhibited lacZ expression

From publication PMC10451377, “Rationally Designed Pyrimidine Compounds: Promising Novel Antibiotics for the Treatment of Staphylococcus aureus-Associated Bovine Mastitis” (Antibiotics, 2023)
